Laboratory results published in patent US9593305B2, “Differentiation of pluripotent stem cells” (Janssen Biotech, Inc., priority 2008, dated 2017).

Test system: H1 human embryonic stem cells
Assay: Step-wise differentiation, RT-PCR of differentiation markers (Example 17, Table 15)
Assay type: cell-based
Experimental: Stock cultures of human embryonic stem cells (H1 human embryonic stem cell line) were maintained in an undifferentiated, pluripotent state on reduced growth factor […]™ (BD Biosciences; Cat #356231)-coated dishes in MEF conditioned medium supplemented with 8 ng/ml bFGF (PeproTech Inc.; Cat #100-18B) with passage on average every four days. Passage was performed by exposing cell cultures to a solution of 1 mg/ml dispase (Invitrogen; Cat #17105-041) for 5 to 7 minutes at 37° C. followed by rinsing the monolayer with MEF conditioned culture medium and gentle scraping to recover cell clusters. Clusters were centrifuged at low speed to collect a cell pellet and remove residual dispase. Cell clusters were split at a 1:3 or 1:4 ratio for routine maintenance culture or a 1:1 ratio for immediate assay. All human ES cell lines were maintained at passage numbers less than 50 and routinely evaluated for normal karyotype and absence of mycoplasma.
Cell clusters were evenly resuspended in MEF conditioned medium supplemented with 8 ng/ml bFGF and plated onto reduced growth factor […]™-coated 24-well, black wall culture plates (Arctic White; Cat #AWLS-303012) in volumes of 0.5 ml/well. Daily feeding was conducted by aspirating spent culture medium from each well and replacing with an equal volume of fresh medium. Plates were maintained at 37° C., 5% CO2 throughout assay.
The assay was initiated by aspirating the culture medium from each well and adding back an aliquot (0.5 ml) of test medium. Test conditions for the first step of differentiation were conducted over a three-day period, feeding daily by aspirating and replacing the medium from each well with fresh test medium. On the first day of assay, 100 ng/ml activin A (PeproTech; Cat #120-14) or 100 ng/ml GDF-8 (R&D Systems, Cat #788-G8) was added to respective assay wells where each growth factor was diluted into RPMI-1640 medium (Invitrogen; Cat #: 22400) with 2% Albumin Bovine Fraction V, Fatty Acid Free (FAF BSA) (MP Biomedicals, Inc; Cat #152401). In some samples, 20 ng/ml Wnt3a (R&D Systems; Cat #1324-WN/CF) was also included. On the second day of assay, 100 ng/mlactivin A or 100 ng/ml GDF-8 was diluted into RPMI-1640 medium supplemented with 2% FAF BSA, omitting Wnt3a from all samples. In some test samples using GDF-8, Wnt3a was replaced with a given concentration of small molecule compound, added only on the first day of definitive endoderm differentiation. […] At the conclusion of the first step of differentiation, cells from some wells were harvested for flow cytometry analysis to evaluate levels of CXCR4, a marker of definitive endoderm formation. Additional wells were harvested for RT-PCR analysis to measure other markers of differentiation.
At the conclusion of the first step of definitive endoderm differentiation, replicate sets of parallel wells from each treatment group were subjected to further step-wise differentiation. It is important to note that after the first differentiation step, all wells undergoing subsequent culture and differentiation received the same treatment. The protocol for this continuing differentiation is described below.
Step 2 of the differentiation protocol was carried out over two days. Cells were fed daily by aspirating the medium from each well and replacing with a fresh aliquot (0.5 ml) of DMEM:F12 medium (Invitrogen; Cat #11330-032) containing 2% FAF BSA, 50 ng/ml FGF7 (PeproTech; Cat #100-19), and 250 nM cyclopamine-KAAD (Calbiochem; Cat #239804).
Step 3 of the differentiation protocol was carried out over four days. […]

[1] = Step 5, cells harvested at end of step, treatment given during step one

With “GDF-8: growth factor GDF-8, also known as myostatin, member of the TGF-β family” the “RT-PCR CT Values AFP” value (Step 1) was 40.0, the “RT-PCR CT Values CD9” value (Step 1) was 25.5 and the “RT-PCR CT Values CD99” value (Step 1) was 25.9. For the same substance, the “RT-PCR CT Values CDH” value (Step 1) was 22.3, the “RT-PCR CT Values CDH1” value (Step 1) was 25.2 and the “RT-PCR CT Values CDX2” value (Step 1) was 40.0. For the same substance, the “RT-PCR CT Values CER1” value (Step 1) was 20.1, the “RT-PCR CT Values CXCR4” value (Step 1) was 24.6 and the “RT-PCR CT Values FGF4” value (Step 1) was 34.9. For the same substance, the “RT-PCR CT Values FGF17” value (Step 1) was 22.1, the “RT-PCR CT Values FOXA2” value (Step 1) was 25.9 and the “RT-PCR CT Values GAPDH” value (Step 1) was 21.6. For the same substance, the “RT-PCR CT Values GATA4” value (Step 1) was 27.5, the “RT-PCR CT Values GATA6” value (Step 1) was 24.8 and the “RT-PCR CT Values GSC” value (Step 1) was 24.2. The “RT-PCR CT Values HLXB9” value (Step 1) was 25.3, the “RT-PCR CT Values KIT” value (Step 1) was 25.4 and the “RT-PCR CT Values MIXL1” value (Step 1) was 30.6. For the same substance, the “RT-PCR CT Values NANOG” value (Step 1) was 25.0, the “RT-PCR CT Values OTX2” value (Step 1) was 24.3 and the “RT-PCR CT Values POU5F1” value (Step 1) was 29.5. For the same substance, the “RT-PCR CT Values SOX7” value (Step 1) was 29.8, the “RT-PCR CT Values SOX17” value (Step 1) was 25.2 and the “RT-PCR CT Values T” value (Step 1) was 32.9. The “RT-PCR CT Values ALB” value (Step 3) was 28.7, the “RT-PCR CT Values AMY2A” value (Step 3) was 30.4 and the “RT-PCR CT Values ARX” value (Step 3) was 35.3. For the same substance, the “RT-PCR CT Values CDX2” value (Step 3) was 23.8, the “RT-PCR CT Values GAPDH” value (Step 3) was 18.0 and the “RT-PCR CT Values GCG” value (Step 3) was 40.0. The “RT-PCR CT Values HNF4A” value (Step 3) was 23.6, the “RT-PCR CT Values INS” value (Step 3) was 40.0 and the “RT-PCR CT Values ISL1” value (Step 3) was 28.5. For the same substance, the “RT-PCR CT Values MAFA” value (Step 3) was 33.6, the “RT-PCR CT Values MAFB” value (Step 3) was 27.2 and the “RT-PCR CT Values NEUROD1” value (Step 3) was 30.3. The “RT-PCR CT Values NEUROG3” value (Step 3) was 28.7, the “RT-PCR CT Values NKX2-2” value (Step 3) was 30.3 and the “RT-PCR CT Values NKX2-5” value (Step 3) was 34.4. For the same substance, the “RT-PCR CT Values NKX6-1” value (Step 3) was 35.0, the “RT-PCR CT Values PAX4” value (Step 3) was 32.4 and the “RT-PCR CT Values PAX6” value (Step 3) was 24.8. The “RT-PCR CT Values PDX1” value (Step 3) was 25.5, the “RT-PCR CT Values PECAM” value (Step 3) was 30.0 and the “RT-PCR CT Values POU3F4” value (Step 3) was 30.8. The “RT-PCR CT Values PTF1A” value (Step 3) was 34.2, the “RT-PCR CT Values SST” value (Step 3) was 29.5 and the “RT-PCR CT Values ZIC1” value (Step 3) was 26.1. For the same substance, the “RT-PCR CT Values ALB” value (Step 4) was 25.5, the “RT-PCR CT Values AMY2A” value (Step 4) was 29.1 and the “RT-PCR CT Values ARX” value (Step 4) was 29.8. For the same substance, the “RT-PCR CT Values CDX2” value (Step 4) was 24.6, the “RT-PCR CT Values GAPDH” value (Step 4) was 18.0 and the “RT-PCR CT Values GCG” value (Step 4) was 31.3. For the same substance, the “RT-PCR CT Values HNF4A” value (Step 4) was 23.8, the “RT-PCR CT Values INS” value (Step 4) was 30.9 and the “RT-PCR CT Values ISL1” value (Step 4) was 27.6. For the same substance, the “RT-PCR CT Values MAFA” value (Step 4) was 32.8, the “RT-PCR CT Values MAFB” value (Step 4) was 24.1 and the “RT-PCR CT Values NEUROD1” value (Step 4) was 29.2. The “RT-PCR CT Values NEUROG3” value (Step 4) was 28.7, the “RT-PCR CT Values NKX2-2” value (Step 4) was 29.0 and the “RT-PCR CT Values NKX2-5” value (Step 4) was 32.3. The “RT-PCR CT Values NKX6-1” value (Step 4) was 31.2, the “RT-PCR CT Values PAX4” value (Step 4) was 31.1 and the “RT-PCR CT Values PAX6” value (Step 4) was 27.9. For the same substance, the “RT-PCR CT Values PDX1” value (Step 4) was 26.5, the “RT-PCR CT Values PECAM” value (Step 4) was 29.4 and the “RT-PCR CT Values POU3F4” value (Step 4) was 29.4. For the same substance, the “RT-PCR CT Values PTF1A” value (Step 4) was 40.0, the “RT-PCR CT Values SST” value (Step 4) was 26.0 and the “RT-PCR CT Values ZIC1” value (Step 4) was 22.8. The “RT-PCR CT Values ALB” value (Step 5) was 20.5, the “RT-PCR CT Values AMY2A” value (Step 5) was 28.2 and the “RT-PCR CT Values ARX” value (Step 5) was 25.2. For the same substance, the “RT-PCR CT Values CDX2” value (Step 5) was 24.4, the “RT-PCR CT Values GAPDH” value (Step 5) was 17.4 and the “RT-PCR CT Values GCG” value (Step 5) was 18.1. The “RT-PCR CT Values HNF4A” value (Step 5) was 22.9, the “RT-PCR CT Values INS” value (Step 5) was 17.7 and the “RT-PCR CT Values ISL1” value (Step 5) was 24.3. The “RT-PCR CT Values MAFA” value (Step 5) was 31.8, the “RT-PCR CT Values MAFB” value (Step 5) was 23.3 and the “RT-PCR CT Values NEUROD1” value (Step 5) was 24.2. For the same substance, the “RT-PCR CT Values NEUROG3” value (Step 5) was 30.1, the “RT-PCR CT Values NKX2-2” value [1] was 25.9 CT and the “RT-PCR CT Values NKX2-5” value [1] was 31.4 CT. The “RT-PCR CT Values NKX6-1” value [1] was 26.6 CT, the “RT-PCR CT Values PAX4” value [1] was 29.4 CT and the “RT-PCR CT Values PAX6” value [1] was 26.6 CT. The “RT-PCR CT Values PDX1” value [1] was 25.6 CT, the “RT-PCR CT Values PECAM” value [1] was 29.7 CT and the “RT-PCR CT Values POU3F4” value [1] was 27.8 CT. The “RT-PCR CT Values PTF1A” value [1] was 29.5 CT, the “RT-PCR CT Values SST” value [1] was 21.1 CT and the “RT-PCR CT Values ZIC1” value [1] was 22.5 CT.
